Where no end group is shown, it is not given here.
What was measured:
[1] = molecular target: peptide-binding domain of GRP78 (GRP78-PBD, amino acids 421-639) (Homo sapiens, UniProt P11021); experiment: Surface plasmon resonance, GRP78-PBD binding to chip-bound N-terminal biotin-labeled CTPs/TR-CTPs; settings: N-terminal GGGGS extension, peptide immobilized on streptavidin chip; for Kd: read-out: Dissociation constant KD
From the text: Biotin-labeled TR-CTPs and CTPs were synthesized (Biotools Co., Ltd, Taiwan) to evaluate kinetics of binding to GRP78 by surface plasmon resonance. TR-CTPs and CTPs were extended by five amino acids (GGGGS; SEQ ID NO: 9) at their N-termini. The N-termini were labeled with a single biotin molecule per TR-CTP/CTP through an aminohexanoic acid linkage.
Also biotin labeled were two negative control peptides, in which the L-Leu residues within the sequences of F4P6-TR-CTP and F4P13-TR-CTP were replaced with D-Leu residues (dF4P6 and dF4P13, respectively).
(§1) Streptavidin was immobilized to a sensor chip (CMS; GE Healthcare) having a matrix of carboxymethylated dextran covalently attached to a gold surface using a standard amine-coupling method according to established procedures (GE Healthcare). The biotin-labeled TR-CTPs were immobilized on the chip by flowing them over the chip at a flow rate of 5 μl/min using HBS-P+ (GE Healthcare) as the running buffer.
(§2) Sensor chips were regenerated by washing the chip surface for 30 s with glycine buffer (10 mM; pH 11.5). Chips were reused after two chip regeneration cycles followed by a 120 s wash with running buffer.

[2] = molecular target: T1, GRP78-PBD (Homo sapiens, UniProt P11021); experiment: Surface plasmon resonance, GRP78-PBD binding to chip-bound C-terminal biotin-labeled CTPs/TR-CTPs; settings: C-terminal GGGGSK extension, biotin on C-terminal lysine; for Kd: read-out: Dissociation constant KD
Method: as §1, §2
The P13-series peptides described above in Example 1 were also biotin labeled after extending them at their C-termini with the sequence GGGGSK (SEQ ID NO: 10). Biotin was conjugated to the C-terminal lysine residue using standard techniques. Binding affinities of GRP78-PBD for the sensor chip-bound peptides were determined as described above in Example 2.

[3] = test system: N87 gastric cancer target cells; experiment: PBMC-mediated cell killing, xCELLigence RTCA, N87; assay type: cell-based; settings: 12.5 nM antibody, effector-to-target ratio 10:1, 90 h incubation
Method: (§3) The ability of bispecific antibody-like construct F4P6-BsAb to induce cell killing by peripheral blood mononuclear cells (PBMC) was tested on TOV21G ovarian cancer target cells and N87 gastric cancer target cells.
(§4) Target cells were seeded at 2×10^4 cells per well of a 96-well electronic microtiter plate (“E-plate”; ACEA Biosciences, Inc.) and allowed to adhere for 2 h. PBMC effector cells, PBMC effector cells plus F4P6-BsAb, and PBMC effector cells plus Ctrl-BsAb that lacks the […] sequence were added to reach a final effector-to-target ratio of 10:1. The concentration of F4P6-BsAb and Ctrl-BsAb was 12.5 nM. Data was gathered and quantified using an xCELLigence Real-Time Cell Analysis system (“RTCA”; ACEA Biosciences, Inc.) as directed by the manufacturer.

[4] = molecular target: T1, GRP78-PBD; experiment: Surface plasmon resonance, GRP78-PBD binding to F4P6-BsAb amine-coupled to sensor chip; settings: F4P6-BsAb directly coupled to sensor chip by amine-coupling
Method: as §1, §2
Following expression and purification of F4P6-BsAb, the kinetics of GRP78-PDB binding to it was evaluated by surface plasmon resonance as described in Example 1 above, differing in that the F4P6-BsAb was directly coupled to the CMS sensor chip by amine-coupling.

[5] = test system: TOV21G ovarian cancer target cells; experiment: PBMC-mediated cell killing, xCELLigence RTCA, TOV21G; assay type: cell-based; settings: 12.5 nM antibody, effector-to-target ratio 10:1, 40 h incubation
Method: as §3, §4

T1 sequence (P11021 421-639): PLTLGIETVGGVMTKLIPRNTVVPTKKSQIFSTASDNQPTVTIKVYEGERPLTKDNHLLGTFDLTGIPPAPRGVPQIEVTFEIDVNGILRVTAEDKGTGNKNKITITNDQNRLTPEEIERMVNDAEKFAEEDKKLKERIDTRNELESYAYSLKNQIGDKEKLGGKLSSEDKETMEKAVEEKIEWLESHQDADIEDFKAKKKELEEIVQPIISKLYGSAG
Chain of peptide-binding domain of GRP78 (GRP78-PBD, amino acids 421-639) (P11021 421-639): as above

RLLDTNRPFLPY [P6-CTP, reference compound]
Association rate Kon [1]: 1.5 × 10^3 M^−1S^−1
Dissociation rate Koff [1]: 3.0×10^−3 S^−1
Kd [1]: 1900 nM

RPFLPFLPYRPFLPFLPY [F5P6-TR-CTP]
Association rate Kon [1]: 8.9 × 10^2 M^−1S^−1
Dissociation rate Koff [1]: 9.1×10^−4 S^−1
Kd [1]: 1000 nM

RPFLPFLPY [F4P6-TR-CTP]
Association rate Kon [1]: 2.3 × 10^3 M^−1S^−1
Dissociation rate Koff [1]: 2.8×10^−3 S^−1
Kd [1]: 1200 nM

RPFLFPFLFYRPFLFPFLFY [F5P13-TR-CTP]
Association rate Kon [1]: 1.9 × 10^3 M^−1S^−1
Dissociation rate Koff [1]: 1.2×10^−3 S^−1
Kd [1]: 610 nM

RPFLFPFLFY [F4P13-TR-CTP]
Association rate Kon [2]: 1.8 × 10^3 M^−1S^−1
Dissociation rate Koff [2]: 1.2 × 10^−3 S^−1
Kd [2]: 660 nM
Association rate Kon [1]: 7.9 × 10^2 M^−1S^−1
Dissociation rate Koff [1]: 1.7×10^−3 S^−1
Kd [1]: 2100 nM

RLLDTNRPFLFY [P13-CTP, reference compound]
Association rate Kon [2]: 9.7 × 10^2 M^−1S^−1
Dissociation rate Koff [2]: 2.0 × 10^−3 S^−1
Kd [2]: 2700 nM
Association rate Kon [1]: 1.2 × 10^3 M^−1S^−1
Dissociation rate Koff [1]: 3.4×10^−3 S^−1

B1: F4P6-BsAb: bispecific antibody-like knob-and-hole heterodimer, anti-CD3 scFv plus F4P6-TR-CTP on both Fc C-termini, SEQ ID NO 12 and 14 (protein)
chain 1: MGGRRVRWEVYISRAGYVNRQIAWRRHHRSATMGWSLILLFLVAVATRVLSQVQLVQSGAEVKKPGASVKVSCKASGYTFTRYTMHWVRQAPGQGLEWIGYINPSRGYTNYNQKFKDKATLTTDKSISTAYMELSRLRSDDTAVYYCARYYDDHYTLDYWGQGTLVTVSSGGGGSGGGGSGGGGSEIVLTQSPATLSLSPGERATLSCSASSSVSYMNWYQQKPGQAPRRWIYDTSKLASGIPARFSGSGSGTSYTLTISSLEPEDFAVYYCQQWSSNPFTFGQGTKVEIKRSGGGGSGGGGSGGGGSTGTHTCPPCPAPELAGAPSVFLFPPKPKDTLMISRTPEVTCVVVDVSHEDPEVKFNWYVDGVEVHNAKTKPREEQYNSTYRVVSVLTVLHQDWLNGKEYKCKVSNKALPAPIEKTISKAKGQPREPQVCTLPPSREEMTKNQVSLSCAVKGFYPSDIAVEWESNGQPENNYKTTPPVLDSDGSFFLVSKLTVDKSRWQQGNVFSCSVMHEALHNHYTQKSLSLSPGKGGGGSGGGGSGGGGSRPFLPFLPY
chain 2: MGGRRVRWEVYISRAGYVNRQIAWRRHHRSATMGWSLILLFLVAVATRVLSTGTHTCPPCPAPELAGAPSVFLFPPKPKDTLMISRTPEVTCVVVDVSHEDPEVKFNWYVDGVEVHNAKTKPREEQYNSTYRVVSVLTVLHQDWLNGKEYKCKVSNKALPAPIEKTISKAKGQPREPQVYTLPPCREEMTKNQVSLWCLVKGFYPSDIAVEWESNGQPENNYKTTPPVLDSDGSFFLYSKLTVDKSRWQQGNVFSCSVMHEALHNHYTQKSLSLSPGKGGGGSGGGGSGGGGSRPFLPFLPY
PBMC mediated lysis of N87 cells [3]: 15%
Kd [4]: 1100 nM
Koff value [4]: 9.4×10^−4 S^−1
PBMC mediated lysis of TOV21G cells [5]: 22%
